Laboratory results: article PMC8953385, “2-Styrylchromones: Cytotoxicity and Modulation of Human Neutrophils’ Oxidative Burst” (Pharmaceuticals, 2022)

Tests used:
[1] = tested on: human neutrophils’ oxidative burst; assay: Neutrophils’ oxidative burst, PMA stimulation, luminol chemiluminescence; type: cell-based; details: for inhibition at 75 µM: 75.00 µM (highest tested concentration); for inhibition at 25 µM: 25.00 µM (highest tested concentration); for IC50: PMA 160.00 nM, luminol 500.00 μM, mean ± SEM, read-out: IC50, inhibition of human neutrophils’ oxidative burst; for inhibition at 50 µM: 50.00 µM (highest tested concentration); for Times less active than C8 (oxidative burst): comparison of IC50 values with C8
From the text: (§1) Following the Declaration of Helsinki and the approval of patient-related procedures and protocols by the Ethics Committee of Centro Hospitalar do Porto, Portugal, venous blood was collected from healthy human blood donors, after informed consent. The blood was stored into K3EDTA vacuum tubes after antecubital venipuncture of the donors. In order to obtain the isolated neutrophils, the density gradient centrifugation method was applied, as previously reported, with modifications. In brief, in a 15 mL polypropylene tube, 3 mL of histopaque 1119 were added followed by 3 mL of histopaque 1077 and finally, 4.5 mL of the collected blood were slowly added. Each tube was centrifuged at 900× g at 20 °C for 30 min, with a medium acceleration and deceleration speed. Following centrifugation, the neutrophils’ portion was harvested, and PBS was added to double the volume. The neutrophils’ suspension was then centrifuged at 850× g at 4 °C for 5 min, using a maximum acceleration and deceleration speed. The supernatant was discarded, and the neutrophils’ pellet was resuspended in PBS and afterward milli-Q water was added to lyse the residual erythrocytes. The tube was gently homogenized and after a few minutes, 3% NaCl was added to restore isotony, and then centrifuged again at 850× g at 4 °C for 5 min, using a maximum acceleration and deceleration speed. The supernatant was discarded, and a neutrophils’ pellet was obtained. After isolation, the neutrophils’ pellet was resuspended in the incubation media, tris-glucose buffer (25 mM Trizma® base, 5.5 mM D-glucose, 140 mM NaCl, 1.26 mM CaCl2, 0.81 mM MgSO4, 5.37 mM KCl, pH = 7.4). Neutrophils’ suspension was kept on ice, under soft shaking, until use. The trypan blue exclusion method was used to determine cells’ yield and viability.
The effect of 2-SC on the modulation of neutrophils’ oxidative burst was assessed after the stimulation of these cells with PMA by monitoring the oxidation of chemiluminescent probe, luminol, by the generated reactive species (Figure S2), according to a previously described methodology. Briefly, neutrophils (1 × 10^6 cells/mL) were pre-incubated with luminol (500.00 μM), and 2-SC (0.00–100.00 μM) or DMSO, at the final concentrations indicated. After this pre-incubation, at 37 °C for 5 min, PMA (160.00 nM) was added, and in turn, neutrophils’ stimulation was initiated. Kinetic readings were immediately initiated and followed for 40 min, at 37 °C, in a microplate reader. The arbitrary chemiluminescence value was taken at the peak of the curve, and the results were expressed as the inhibition percentage of luminol oxidation.
GraphPad Prism 6 software was used to plot the curves of percentage of inhibition versus concentrations of compound, from which the concentration that produces 50% of inhibition (IC50) was determined. GraphPad Prism 6 software was also used to perform all statistical analyses. […] In all cases, p-values < 0.05 were considered statistically significant. The results are expressed as mean ± standard error of the mean (SEM).

[2] = tested on: human neutrophils; assay: Annexin V/PI flow cytometric assay of neutrophils’ viability; type: cell-based; details: for Higher 2-SC concentration that did not affect human neutrophils’ viability: annexin V/PI assay, 40 min incubation at 37 °C
From the text: as §1
(§2) The effect of the studied 2-SC on neutrophils’ viability was assessed by flow cytometry, after simultaneous staining with FITC Annexin V and propidium iodide (PI) (Figure S1), as previously reported by our research group, with modifications. After isolation, neutrophils (1 × 10^6 cells/mL) were incubated with 2-SC (up to 100.00 μM) or DMSO for 40 min, at 37 °C, in a 48-well plate. At the end of incubation, the content of each well was transferred to conical microtubes and centrifuged at 400× g at 20 °C for 5 min. After discarding the supernatant, the neutrophils’ pellet was resuspended in PBS and centrifuged under the previous conditions. Once the supernatant was removed, the pellet was resuspended in 10× diluted binding buffer, and then PI and annexin V were added. This mixture was incubated in the dark at room temperature for 15 min, and finally, 10× diluted binding buffer was added. In a flow cytometer, the fluorescence signal, of at least 10,000 cells/sample, were collected in logarithmic mode and followed in channels 1 and 3. The green fluorescence corresponding to annexin V FITC was accompanied in channel 1 and plotted as a histogram of FL1 staining, whereas the fluorescence corresponding to PI was monitored in channel 3 and plotted in the same histogram but as FL3 staining. The collected data were analyzed with the BD Accuri™ C6 software. The data analysis was restricted to the neutrophils’ population. Thus, according to the light-scattering properties of neutrophils (in a forward versus side scatter plot), a polygon gate was drawn, where debris and other blood cells were excluded. The effect of 2-SC on neutrophils’ viability was expressed as a relative percentage of apoptotic and/or necrotic cells when compared to the control (without 2-SC).

[3] = as above; type: cell-based, human; details: human, isolated human neutrophils, pH 7.4; 75.00 μM; representative plot, Figure 4; read-out: Viable cells [annexin V (−)/PI (−)], lower left quadrant
From the text: as §1, §2

[4] = Homo sapiens, Neutrophil, read-out: Inhibitory activity (% ± SEM), neutrophils’ oxidative burst

| IC50 ([1]; Homo sapiens, Neutrophil) [nM] | SMILES | Higher 2-SC concentration that did not affect human neutrophils’ viability [2] [µM] | other results |
| --- | --- | --- | --- |
|  | O=c1cc(/C=C/c2ccccc2)oc2ccccc12 [A1] | 75.00 | inhibition at 75 µM [1, 4]: < 30% |
|  | O=c1cc(/C=C/c2ccccc2)oc2cccc(O)c12 [A2] | 6.25 |  |
|  | O=c1cc(/C=C/c2ccccc2)oc2cc(O)ccc12 [A3] | 75.00 | inhibition at 75 µM [1, 4]: 53 ± 4%; Effect on human neutrophils’ viability ([2]; 75.00 μM): showed no effect on human neutrophils’ viability; viability at 40 min, 75 µM [3]: 84.3% |
|  | COc1cccc2oc(/C=C/c3ccccc3)cc(=O)c12 [A5] | 6.25 |  |
|  | O=c1cc(/C=C/c2cccc(O)c2)oc2ccccc12 [A6] | 100.00 | inhibition at 100 µM ([1]; Homo sapiens, Neutrophil, 100.00 µM (highest tested concentration), read-out: Inhibitory activity (% ± SEM), neutrophils’ oxidative burst): < 30% |
|  | O=c1cc(/C=C/c2cccc(O)c2)oc2cccc(O)c12 [A7] | 6.25 |  |
|  | O=c1cc(/C=C/c2ccccc2O)oc2cccc(O)c12 [A8] | 25.00 | inhibition at 25 µM [1, 4]: < 30% |
| 7500 ± 400 | O=c1cc(/C=C/c2ccc(O)cc2)oc2ccccc12 [B1] | 25.00 | Effect on total neutrophils’ population percentage ([2]; 50.00 μM): affected the total neutrophils’ population percentage |
| 4100 ± 300 | O=c1cc(/C=C/c2ccc(O)cc2)oc2cc(O)ccc12 [B3] | 25.00 |  |
| 3100 ± 300 | O=c1cc(/C=C/c2ccc(O)cc2)oc2cc(O)cc(O)c12 [B4] | 6.25 |  |
|  | COc1cc(O)c2c(=O)cc(/C=C/c3ccc(O)cc3)oc2c1 [B5] | 6.25 |  |
| 1000 ± 100 | O=c1cc(/C=C/c2ccc(O)c(O)c2)oc2ccccc12 [B6] | 12.50 | Times more active than B1 (oxidative burst) ([1]; comparison of IC50 values with B1): ~7.5 times |
|  | O=c1cc(/C=C/c2ccc(O)c(O)c2)oc2cccc(O)c12 [B7] | 0.38 | Inhibitory activity (% ± SEM), neutrophils’ oxidative burst ([1]; 0.38 µM (highest tested concentration)): did not show an inhibitory effect; inhibition at 0.38 µM ([1]; Homo sapiens, Neutrophil, 0.38 µM (highest tested concentration), read-out: Inhibitory activity (% ± SEM), neutrophils’ oxidative burst): < 30%; Effect on human neutrophils’ viability ([2]; 0.38 μM): no effect on the viability was observed |
| 700 ± 100 | O=c1cc(/C=C/c2ccc(O)c(O)c2)oc2cc(O)ccc12 [B8] | 25.00 |  |
| 800 ± 100 | O=c1cc(/C=C/c2ccc(O)c(O)c2)oc2cc(O)cc(O)c12 [B9] | 12.50 |  |
| 1000 ± 100 | COc1ccc2c(=O)cc(/C=C/c3ccc(O)c(O)c3)oc2c1 [B10] | 6.25 |  |
| 800 ± 100 | COc1cc(OC)c2c(=O)cc(/C=C/c3ccc(O)c(O)c3)oc2c1 [B11] | 12.50 |  |
| 900 ± 300 | O=c1cc(/C=C/c2ccc(O)c(O)c2)oc2c(O)c(O)ccc12 [B12] | 12.50 |  |
| 1000 ± 200 | COc1ccc2c(=O)cc(/C=C/c3ccc(O)c(O)c3)oc2c1OC [B13] | 12.50 |  |

| IC50 ([1]; Homo sapiens, Neutrophil) [nM] | SMILES | Higher 2-SC concentration that did not affect human neutrophils’ viability [2] [µM] | other results |
| --- | --- | --- | --- |
|  | COc1ccc(/C=C/c2cc(=O)c3c(OC)cccc3o2)cc1OC [C3] | 50.00 | inhibition at 50 µM [1, 4]: 54 ± 4% |
| 24200 ± 300 | COc1ccc2c(=O)cc(/C=C/c3ccc(OC)c(OC)c3)oc2c1 [C4] | 37.50 | Times less active than C8 (oxidative burst) [1]: about 14 times |
|  | COc1cc(OC)c2c(=O)cc(/C=C/c3ccc(OC)c(OC)c3)oc2c1 [C5] | 75.00 | inhibition at 50 µM [1, 4]: 54 ± 2% |
| 20000 ± 2000 | COc1ccc(/C=C/c2cc(=O)c3ccc(OC)c(OC)c3o2)cc1OC [C6] | 37.50 | Times less active than C8 (oxidative burst) [1]: ~17 times |
|  | COc1ccc(/C=C/c2cc(=O)c3ccc(OCc4ccccc4)c(OCc4ccccc4)c3o2)cc1OC [C7] | 25.00 | inhibition at 25 µM [1, 4]: < 30% |
|  | O=c1cc(/C=C/c2ccc(OCc3ccccc3)c(OCc3ccccc3)c2)oc2ccccc12 [D1] | 12.50 |  |
|  | COc1cc(OC)c2c(=O)cc(/C=C/c3ccc(OCc4ccccc4)c(OCc4ccccc4)c3)oc2c1 [D2] | 12.50 |  |
|  | COc1ccc2c(=O)cc(/C=C/c3ccc(OCc4ccccc4)c(OCc4ccccc4)c3)oc2c1OC [D3] | 12.50 |  |
|  | Cc1ccc(/C=C/c2cc(=O)c3ccccc3o2)cc1 [E1] | 25.00 |  |
|  | Cc1ccc(/C=C/c2cc(=O)c3c(O)cccc3o2)cc1 [E2] | 12.50 |  |
|  | O=c1cc(/C=C/c2ccc([N+](=O)[O-])cc2)oc2cccc(O)c12 [F2] | 12.50 |  |
|  | O=c1cc(/C=C/c2cccc(Cl)c2)oc2cccc(O)c12 [G1] | 12.50 |  |
|  | O=c1cc(/C=C/c2ccc(Cl)c(Cl)c2)oc2cccc(O)c12 [G3] | 25.00 | inhibition at 25 µM [1, 4]: < 30% |
|  | O=c1cc(/C=C/c2c(Cl)cccc2Cl)oc2cccc(O)c12 [G4] | 25.00 | inhibition at 25 µM [1, 4]: < 30% |
|  | COc1ccc2c(=O)c(Br)c(/C=C/c3ccccc3)oc2c1 [H1] | 12.50 |  |
|  | COc1cc(OC)c2c(=O)c(Br)c(/C=C/c3ccccc3)oc2c1 [H2] | 50.00 | inhibition at 50 µM [1, 4]: < 30% |
|  | COc1ccc2c(=O)c(Br)c(/C=C/c3ccc(OC)c(OC)c3)oc2c1 [H3] | 12.50 |  |
| 800 ± 100 | O=c1c(O)c(-c2ccc(O)c(O)c2)oc2cc(O)cc(O)c12 [Quercetin, quercetin, reference compound] |  |  |
